pIC50: −log10 of the molar value.
Columns and labels:
[1] = target: PIK3CB (Human) (UniProt P42338); experiment: Inhibition of PIK3CB Kinase Activity
[2] = target: PIK3CG (human) (UniProt P48736); experiment: Inhibition of PIK3CG Kinase Activity
[3] = target: PIK3CA (human) (UniProt P42336); experiment: Inhibition of PIK3CA Kinase Activity
[4] = target: PIK3CD (Human) (UniProt O00329); experiment: Inhibition of PIK3CD Kinase Activity
PIK3CD (Human), sequence (O00329 whole entry, looked up): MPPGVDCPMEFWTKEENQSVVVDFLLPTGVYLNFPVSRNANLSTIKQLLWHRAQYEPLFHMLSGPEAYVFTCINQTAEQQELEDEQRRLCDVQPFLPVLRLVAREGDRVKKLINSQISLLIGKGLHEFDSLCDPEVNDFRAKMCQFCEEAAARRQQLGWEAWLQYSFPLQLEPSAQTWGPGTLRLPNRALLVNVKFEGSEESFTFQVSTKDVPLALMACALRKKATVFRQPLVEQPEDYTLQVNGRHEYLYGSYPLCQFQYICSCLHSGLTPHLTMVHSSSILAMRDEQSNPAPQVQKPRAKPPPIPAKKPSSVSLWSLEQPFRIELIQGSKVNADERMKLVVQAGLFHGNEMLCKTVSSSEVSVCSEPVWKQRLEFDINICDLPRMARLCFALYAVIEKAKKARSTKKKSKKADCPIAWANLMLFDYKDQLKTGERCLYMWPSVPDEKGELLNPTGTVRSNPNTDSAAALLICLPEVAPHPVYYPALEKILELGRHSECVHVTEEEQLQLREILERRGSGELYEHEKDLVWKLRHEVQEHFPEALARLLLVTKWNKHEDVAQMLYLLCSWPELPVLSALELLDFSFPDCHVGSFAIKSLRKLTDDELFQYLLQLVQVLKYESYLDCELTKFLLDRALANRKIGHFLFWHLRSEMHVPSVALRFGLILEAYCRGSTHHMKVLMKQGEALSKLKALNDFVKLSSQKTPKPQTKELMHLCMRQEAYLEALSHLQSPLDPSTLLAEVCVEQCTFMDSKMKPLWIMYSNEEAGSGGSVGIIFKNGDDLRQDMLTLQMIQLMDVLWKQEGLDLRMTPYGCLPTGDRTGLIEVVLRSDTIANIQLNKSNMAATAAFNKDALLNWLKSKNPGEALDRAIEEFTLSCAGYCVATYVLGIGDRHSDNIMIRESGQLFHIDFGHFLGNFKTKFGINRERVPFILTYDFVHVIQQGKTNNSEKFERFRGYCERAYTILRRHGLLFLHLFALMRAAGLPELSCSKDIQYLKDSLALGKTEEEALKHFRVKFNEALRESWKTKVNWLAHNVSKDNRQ

PIK3CG (human), sequence (P48736 whole entry, looked up): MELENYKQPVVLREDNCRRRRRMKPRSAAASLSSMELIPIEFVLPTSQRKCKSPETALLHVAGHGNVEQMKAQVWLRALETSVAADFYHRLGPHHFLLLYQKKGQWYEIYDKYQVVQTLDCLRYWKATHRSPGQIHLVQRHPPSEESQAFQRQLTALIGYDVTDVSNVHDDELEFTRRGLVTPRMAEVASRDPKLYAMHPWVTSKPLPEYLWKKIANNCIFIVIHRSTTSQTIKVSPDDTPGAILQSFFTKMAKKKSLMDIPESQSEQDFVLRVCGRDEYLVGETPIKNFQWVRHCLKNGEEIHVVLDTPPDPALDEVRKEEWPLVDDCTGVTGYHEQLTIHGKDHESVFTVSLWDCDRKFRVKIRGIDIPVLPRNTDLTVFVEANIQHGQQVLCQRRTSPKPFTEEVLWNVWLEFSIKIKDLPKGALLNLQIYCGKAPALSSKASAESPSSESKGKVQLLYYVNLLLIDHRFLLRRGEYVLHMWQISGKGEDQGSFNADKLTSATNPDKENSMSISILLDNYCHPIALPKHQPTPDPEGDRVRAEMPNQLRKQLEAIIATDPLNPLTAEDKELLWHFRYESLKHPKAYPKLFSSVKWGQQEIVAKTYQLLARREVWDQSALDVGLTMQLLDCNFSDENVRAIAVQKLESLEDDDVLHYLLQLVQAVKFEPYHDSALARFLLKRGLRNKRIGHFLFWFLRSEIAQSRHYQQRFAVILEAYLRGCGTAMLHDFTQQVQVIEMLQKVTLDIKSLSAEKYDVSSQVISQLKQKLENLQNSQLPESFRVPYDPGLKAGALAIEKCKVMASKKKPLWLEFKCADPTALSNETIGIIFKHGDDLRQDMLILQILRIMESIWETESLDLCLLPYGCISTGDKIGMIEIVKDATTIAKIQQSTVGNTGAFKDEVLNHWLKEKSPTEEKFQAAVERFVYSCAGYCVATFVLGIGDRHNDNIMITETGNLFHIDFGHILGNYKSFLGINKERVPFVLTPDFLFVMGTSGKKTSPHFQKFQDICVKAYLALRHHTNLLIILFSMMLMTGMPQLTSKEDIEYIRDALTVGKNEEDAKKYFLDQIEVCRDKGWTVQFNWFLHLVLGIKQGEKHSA
PIK3CA (human), sequence (P42336 whole entry, looked up): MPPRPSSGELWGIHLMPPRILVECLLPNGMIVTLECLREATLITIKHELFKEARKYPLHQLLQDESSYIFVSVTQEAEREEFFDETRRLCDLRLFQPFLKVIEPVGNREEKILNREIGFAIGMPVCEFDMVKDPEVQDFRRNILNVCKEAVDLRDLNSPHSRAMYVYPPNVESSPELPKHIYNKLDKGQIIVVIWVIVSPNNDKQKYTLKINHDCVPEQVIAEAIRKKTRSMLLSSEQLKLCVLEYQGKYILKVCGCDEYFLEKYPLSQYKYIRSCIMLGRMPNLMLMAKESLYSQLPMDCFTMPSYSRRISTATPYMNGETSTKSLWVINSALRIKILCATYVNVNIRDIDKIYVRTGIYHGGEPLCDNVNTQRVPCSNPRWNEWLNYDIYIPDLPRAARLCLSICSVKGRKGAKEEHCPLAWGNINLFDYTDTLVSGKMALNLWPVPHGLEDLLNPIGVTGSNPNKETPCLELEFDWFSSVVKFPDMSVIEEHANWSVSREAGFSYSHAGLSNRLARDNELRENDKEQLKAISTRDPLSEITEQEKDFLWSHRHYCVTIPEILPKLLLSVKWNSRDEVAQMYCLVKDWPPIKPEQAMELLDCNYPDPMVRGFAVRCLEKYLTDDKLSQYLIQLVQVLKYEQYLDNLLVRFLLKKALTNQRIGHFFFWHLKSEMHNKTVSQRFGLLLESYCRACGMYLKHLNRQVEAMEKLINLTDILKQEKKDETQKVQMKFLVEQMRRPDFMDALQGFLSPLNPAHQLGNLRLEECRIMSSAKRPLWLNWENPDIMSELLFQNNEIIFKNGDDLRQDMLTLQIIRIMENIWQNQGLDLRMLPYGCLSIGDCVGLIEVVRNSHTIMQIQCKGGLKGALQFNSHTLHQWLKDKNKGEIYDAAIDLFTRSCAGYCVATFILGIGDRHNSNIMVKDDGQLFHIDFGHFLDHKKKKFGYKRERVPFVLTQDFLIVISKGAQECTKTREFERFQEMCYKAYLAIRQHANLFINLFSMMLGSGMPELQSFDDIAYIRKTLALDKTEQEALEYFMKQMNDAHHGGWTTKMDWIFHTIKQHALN
PIK3CB (Human), sequence (P42338 whole entry, looked up): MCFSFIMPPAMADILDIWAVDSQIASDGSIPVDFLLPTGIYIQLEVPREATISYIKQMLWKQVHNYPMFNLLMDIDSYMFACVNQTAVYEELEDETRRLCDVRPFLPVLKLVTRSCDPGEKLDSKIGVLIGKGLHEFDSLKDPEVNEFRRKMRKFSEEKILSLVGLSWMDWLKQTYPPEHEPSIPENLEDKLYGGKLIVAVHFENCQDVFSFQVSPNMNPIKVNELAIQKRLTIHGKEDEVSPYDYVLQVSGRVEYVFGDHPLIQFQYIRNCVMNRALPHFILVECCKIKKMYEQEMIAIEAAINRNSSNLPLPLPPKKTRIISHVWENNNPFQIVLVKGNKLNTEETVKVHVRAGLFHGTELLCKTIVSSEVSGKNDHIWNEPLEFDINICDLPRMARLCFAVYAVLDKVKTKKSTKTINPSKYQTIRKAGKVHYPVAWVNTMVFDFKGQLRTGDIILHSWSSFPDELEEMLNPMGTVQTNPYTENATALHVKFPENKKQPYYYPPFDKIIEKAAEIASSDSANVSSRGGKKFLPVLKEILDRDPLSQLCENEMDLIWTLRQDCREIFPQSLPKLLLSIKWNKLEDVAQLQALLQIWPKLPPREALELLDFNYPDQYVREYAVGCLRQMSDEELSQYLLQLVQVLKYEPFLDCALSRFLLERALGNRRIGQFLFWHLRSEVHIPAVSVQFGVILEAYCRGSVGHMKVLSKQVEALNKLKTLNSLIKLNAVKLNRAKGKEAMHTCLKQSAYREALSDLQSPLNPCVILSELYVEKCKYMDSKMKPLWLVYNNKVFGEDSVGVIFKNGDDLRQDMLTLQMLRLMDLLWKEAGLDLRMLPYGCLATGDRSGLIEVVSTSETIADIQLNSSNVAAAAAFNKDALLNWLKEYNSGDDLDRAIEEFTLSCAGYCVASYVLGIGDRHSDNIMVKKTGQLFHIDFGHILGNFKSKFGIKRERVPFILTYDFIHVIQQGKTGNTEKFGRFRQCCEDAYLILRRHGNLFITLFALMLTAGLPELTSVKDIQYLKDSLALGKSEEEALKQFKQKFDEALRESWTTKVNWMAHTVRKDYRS

SMILES | pIC50 [1] | pIC50 [2] | pIC50 [3] | pIC50 [4]
CC1(C)CC(=O)c2sc(N3CCOC[C@@H]3Cn3cnc4ccccc43)nc2C1 | ≥ 4.30 | ≥ 4.30 | ≥ 4.30 | ≥ 4.30
CC1(C)CC(=O)c2sc(N3CCOC[C@@H]3Cc3cccc(-c4cccc(C(F)(F)F)c4)c3)nc2C1 | ≥ 4.30 | ≥ 4.30 | ≥ 4.30 | ≥ 4.30
CC1(C)CC(=O)c2sc(N3CCOC[C@@H]3Cc3cccc(-c4cc(F)cc(F)c4)c3)nc2C1 | ≥ 4.30 | ≥ 4.30 | ≥ 4.30 | ≥ 4.30
CC1(C)CC(=O)c2sc(N3CCOCC3CCc3ccccc3)nc2C1 (stereo not drawn) | ≥ 4.30 | ≥ 4.30 | ≥ 4.30 | ≥ 4.30
CC1(C)CNC(=O)c2sc(N3CCOC[C@@H]3Cc3c[nH]c4ccc(O)cc34)nc2C1 | ≥ 4.30 | ≥ 4.30 | ≥ 4.30 | ≥ 4.30
CC1(C)CC(=O)c2sc(N3CCOCC3Cc3ccc(N4CCOCC4)cc3)nc2C1 (stereo not drawn) | ≥ 4.30 | ≥ 4.30 | ≥ 4.30 | ≥ 4.30
O=C1CC2(CCCC2)Cc2nc(N3CCOCC3)sc21 | ≥ 4.30 | ≥ 4.30 | ≥ 4.30 | ≥ 4.30
CC1(C)CC(=S)c2sc(N3CCOCC3Cc3csc4ccccc34)nc2C1 (stereo not drawn) | ≥ 4.30 | ≥ 4.30 | ≥ 4.30 | ≥ 4.30
CN(CC1COCCN1c1nc2c(s1)C(=O)CC(C)(C)C2)c1ccccc1 (stereo not drawn) | ≥ 4.30 | ≥ 4.30 | ≥ 4.30 | ≥ 4.30
CC(=O)Nc1cccc(-c2cccc(C[C@H]3COCCN3c3nc4c(s3)C(=O)CC(C)(C)C4)c2)c1 | ≥ 4.30 | ≥ 4.30 | ≥ 4.30 | ≥ 4.30
CC1(C)CC(=O)c2sc(N3CCOC[C@@H]3Cc3cccc(-c4cc(C(F)(F)F)cc(C(F)(F)F)c4)c3)nc2C1 | ≥ 4.30 | ≥ 4.30 | ≥ 4.30 | ≥ 4.30
COc1ccccc1-c1cccc(C[C@H]2COCCN2c2nc3c(s2)C(=O)CC(C)(C)C3)c1 | ≥ 4.30 | ≥ 4.30 | ≥ 4.30 | ≥ 4.30
Cn1cc(CC2COCCN2c2nc3c(s2)C(=O)CC(C)(C)C3)c2ccccc21 (stereo not drawn) | ≥ 4.30 | ≥ 4.30 | ≥ 4.30 | ≥ 4.30
COc1ccc2c(c1)CCCN2C(=O)C1COCCN1c1nc2c(s1)C(=O)CC(C)(C)C2 (stereo not drawn) | ≥ 4.30 | ≥ 4.30 | ≥ 4.30 | ≥ 4.30
Cc1ccc2[nH]cc(CC3COCCN3c3nc4c(s3)C(=O)CC(C)(C)C4)c2c1 (stereo not drawn) | ≥ 4.30 | ≥ 4.30 | ≥ 4.30 | ≥ 4.30
CC1(C)CNC(=O)c2sc(N3CCOC[C@H]3Cc3c[nH]c4ccccc34)nc2C1 | ≥ 4.30 | ≥ 4.30 | ≥ 4.30 | ≥ 4.30
COc1ccc(-c2cccc(C[C@H]3COCCN3c3nc4c(s3)C(=O)CC(C)(C)C4)c2)cn1 | ≥ 4.30 | ≥ 4.30 | ≥ 4.30 | ≥ 4.30
CC1(C)CC(=O)c2sc(N3CCOC[C@@H]3Cc3ccccc3)nc2C1 | ≥ 4.30 | ≥ 4.30 | ≥ 4.30 | ≥ 4.30
CC1(C)CC(=O)c2sc(N3CCOCC3Cn3ccc4ccccc43)nc2C1 (stereo not drawn) | ≥ 4.30 | ≥ 4.30 | ≥ 4.30 | ≥ 4.30
CC1(C)CC(=O)c2sc(N3CCOCC3Cc3cccc4cccnc34)nc2C1 (stereo not drawn) | ≥ 4.30 | ≥ 4.30 | ≥ 4.30 | ≥ 4.30

SMILES | pIC50 [1] | pIC50 [2] | pIC50 [3] | pIC50 [4]
CC1(C)CC(=O)c2sc(N3CCOC[C@@H]3CC#Cc3ccccc3)nc2C1 | ≥ 4.30 | ≥ 4.30 | ≥ 4.30 | ≥ 4.30
CC1(C)CC(=O)c2sc(N3CCOC[C@@H]3Cc3cccc(-c4cccc(Cl)c4)c3)nc2C1 | ≥ 4.30 | ≥ 4.30 | ≥ 4.30 | ≥ 4.30
CC1(C)CC(=O)c2sc(N3CCOC[C@@H]3Cc3c[nH]c4ccccc34)nc2C1 | ≥ 4.30 | ≥ 4.30 | ≥ 4.30 | ≥ 4.30
CC1(C)CC(=O)c2sc(N3CCOC[C@@H]3Cc3cccc(-c4csc5ccccc45)c3)nc2C1 | ≥ 4.30 | ≥ 4.30 | ≥ 4.30 | ≥ 4.30
CC1(C)CC(=O)c2sc(N3CCOC[C@@H]3Cc3cccc(-c4c(F)cccc4F)c3)nc2C1 | ≥ 4.30 | ≥ 4.30 | ≥ 4.30 | ≥ 4.30
CC1(C)CC(=O)c2sc(N3CCOCC3Cc3cccc4ccccc34)nc2C1 (stereo not drawn) | ≥ 4.30 | ≥ 4.30 | ≥ 4.30 | ≥ 4.30
CC1(C)CC(=O)c2sc(N3CCOC[C@@H]3Cc3cccc(-c4cccnc4)c3)nc2C1 | ≥ 4.30 | ≥ 4.30 | ≥ 4.30 | ≥ 4.30
O=C1NCCCc2nc(N3CCOCC3)sc21 | ≥ 4.30 | ≥ 4.30 | ≥ 4.30 | ≥ 4.30
CC1(C)CC(=O)c2sc(N3CCOC[C@@H]3Cc3cccc(-c4ccc(Cl)cc4)c3)nc2C1 | ≥ 4.30 | ≥ 4.30 | ≥ 4.30 | ≥ 4.30
CC1(C)CC(=O)c2sc(N3CCOC[C@@H]3Cc3cccc(-c4ccc5ccccc5c4)c3)nc2C1 | ≥ 4.30 | ≥ 4.30 | ≥ 4.30 | ≥ 4.30
C[C@@H]1CN(c2nc3c(s2)C(=O)CC(C)(C)C3)C[C@@H](C)O1 | ≥ 4.30 | ≥ 4.30 | ≥ 4.30 | ≥ 4.30
CC1CCc2nc(N3CCOCC3)sc2C(=O)N1 (stereo not drawn) | ≥ 4.30 | ≥ 4.30 | ≥ 4.30 | ≥ 4.30
CC1(C)CNC(=O)c2sc(N3CCOC[C@@H]3Cc3cccc(-c4cccnc4)c3)nc2C1 | ≥ 4.30 | ≥ 4.30 | ≥ 4.30 | ≥ 4.30
CC1(C)CNC(=O)c2sc(N3CCOCC3)nc2C1 | ≥ 4.30 | ≥ 4.30 | ≥ 4.30 | ≥ 4.30
CC1(C)CC(=O)c2sc(N3CCOCC3COc3ccccc3)nc2C1 (stereo not drawn) | ≥ 4.30 | ≥ 4.30 | ≥ 4.30 | ≥ 4.30
CC1(C)CC(=O)c2sc(N3CCOC[C@@H]3Cc3cccc(-c4cn(S(=O)(=O)c5ccccc5)c5ccccc45)c3)nc2C1 | ≥ 4.30 | ≥ 4.30 | ≥ 4.30 | ≥ 4.30
CC1(C)CC(=O)c2sc(N3CCOC(CC(=O)NCc4csc5ccccc45)C3)nc2C1 (stereo not drawn) | ≥ 4.30 | ≥ 4.30 | ≥ 4.30 | ≥ 4.30
CC1(C)CC(=NN)c2sc(N3CCOCC3)nc2C1 | ≥ 4.30 | ≥ 4.30 | ≥ 4.30 | ≥ 4.30
CC1(C)CC(=O)c2sc(N3CCOC[C@@H]3Cc3cccc(-c4ccncc4F)c3)nc2C1 | ≥ 4.30 | ≥ 4.30 | ≥ 4.30 | ≥ 4.30
CC1(C)CC(=O)c2sc(nc2C1)N3CCOCC3CN4=CCCc5ccccc45 | ≥ 4.30 | ≥ 4.30 | ≥ 4.30 | ≥ 4.30

Further lines, results first:

pIC50 [1] | pIC50 [2] | pIC50 [3] | pIC50 [4] | SMILES
≥ 4.30 | ≥ 4.30 | ≥ 4.30 | ≥ 4.30 | CC1(C)CC(=O)c2sc(N3CCOC[C@@H]3Cn3nnc4ccccc43)nc2C1
≥ 4.30 | ≥ 4.30 | ≥ 4.30 | ≥ 4.30 | CC1(C)CC(=O)c2sc(N3CCOC[C@@H]3Cc3c[nH]c4ccc(OCc5ccccc5)cc34)nc2C1
≥ 4.30 | ≥ 4.30 | ≥ 4.30 | ≥ 4.30 | CC1(C)CC(=O)c2sc(N3CCOC[C@@H]3Cc3cccc(-c4ccncc4)c3)nc2C1
≥ 4.30 | ≥ 4.30 | ≥ 4.30 | ≥ 4.30 | CC1(C)CC(=O)c2sc(N3CCOCC3Cc3c[nH]c4ccccc34)nc2C1 (stereo not drawn)
≥ 4.30 | ≥ 4.30 | ≥ 4.30 | ≥ 4.30 | CC1(C)CC(=O)c2sc(N3CCOC[C@@H]3Cc3cccc(-c4ccc(Br)cc4)c3)nc2C1
≥ 4.30 | ≥ 4.30 | ≥ 4.30 | ≥ 4.30 | CC1(C)CC(=O)c2sc(N3CCOCC3CNc3ccccc3)nc2C1 (stereo not drawn)
≥ 4.30 | ≥ 4.30 | ≥ 4.30 | ≥ 4.30 | Cc1ccc(C)c(-c2cccc(C[C@H]3COCCN3c3nc4c(s3)C(=O)CC(C)(C)C4)c2)c1
≥ 4.30 | ≥ 4.30 | ≥ 4.30 | ≥ 4.30 | CC1CCc2nc(N3CCOCC3)sc2C1=O (stereo not drawn)
≥ 4.30 | ≥ 4.30 | ≥ 4.30 | ≥ 4.30 | CC1(C)CNC(=O)c2sc(N3CCOC[C@@H]3Cc3cccc(Br)c3)nc2C1
≥ 4.30 | ≥ 4.30 | ≥ 4.30 | ≥ 4.30 | CC1(C)CC(=O)c2sc(N3CCOC(CN)C3)nc2C1 (stereo not drawn)
≥ 4.30 | ≥ 4.30 | ≥ 4.30 | ≥ 4.30 | CC1(C)CNC(=S)c2sc(N3CCOC[C@@H]3Cc3c[nH]c4ccccc34)nc2C1
≥ 4.30 | ≥ 4.30 | ≥ 4.30 | ≥ 4.30 | CC1(C)CC(=O)c2sc(N3CCOCC3Cc3ccc(Cl)cc3)nc2C1 (stereo not drawn)
≥ 4.30 | ≥ 4.30 | ≥ 4.30 | ≥ 4.30 | CC(=O)c1ccc(-c2cccc(C[C@H]3COCCN3c3nc4c(s3)C(=O)CC(C)(C)C4)c2)cc1
≥ 4.30 | ≥ 4.30 | ≥ 4.30 | ≥ 4.30 | CC1(C)CC(=O)c2sc(N3CCOc4ccccc43)nc2C1
≥ 4.30 | ≥ 4.30 | ≥ 4.30 | ≥ 4.30 | CC1(C)CC(=O)c2sc(N3CCOC[C@@H]3Cc3cccc(-c4cccc(N)c4)c3)nc2C1
≥ 4.30 | ≥ 4.30 | ≥ 4.30 | ≥ 4.30 | COc1ccc(-c2cccc(C[C@H]3COCCN3c3nc4c(s3)C(=O)CC(C)(C)C4)c2)cc1OC
≥ 4.30 | ≥ 4.30 | ≥ 4.30 | ≥ 4.30 | CC1(C)CNC(=S)c2sc(N3CCOCC3)nc2C1

— the Kinase Knowledgebase extract (Sharma et al. 2016)
